Source: patent publication US8642559B2, “C-terminal domain truncation of mGluR1α by calpain and uses thereof” (priority 2006, dated 2014)
“Also recorded” adds a separate entry of the source.

Assays:
Assay type in all cases: cell-based
[1] = test system: cortical neurons; assay: Glutamate toxicity in transfected GFP-expressing cortical neurons (EthD-1 staining); conditions: 25 μM glutamate 1 hour, 12 hours later
Description: In FIGS. 8a and b, cortical neurons were co-transfected with green fluorescent protein (GFP) and vector DNA, myc-mGluR1α or myc-mGluR1α936Δ, respectively. […] Twelve hours later, neurons were stained with EthD-1 to label dead cells. Arrowheads in FIG. 8a indicate EthD-1 positive GFP-expressing neurons. * p<0.05. FIGS. 8c and d are representative photos and bar graphs showing differential roles of endogenous mGluR1 in neuronal toxicity before and after NMDA-induced truncation. Cortical neurons were treated as indicated and were stained with EthD-1 (for dead cells) and calcein AM (for live cells) 24 hours later. * p<0.001.
The downstream signaling pathways of mGluR1α, including release of intracellular calcium and activation of P13K-Akt, are both important for excitotoxicity. Therefore, we postulated that NMDA-induced truncation would alter the role of mGluR1α in neuronal toxicity. To test this possibility, we first co-transfected neurons with GFP and a control vector, wild-type mGluR1α or truncated mGluR1α respectively. […] Twelve hours after treatment, neurons were stained with 0.5 μM EthD-1 for 10 minutes to label dead cells. The numbers of GFP-expressing neurons and EthD-1 positive GFP-expressing neurons on each 18×18 mm coverslip were counted to calculate the percentage of dead cells. […] In neurons co-transfected with control vector, 35% (n=9, on average, there were 405 GFP-expressing neurons counted on each coverslip) of GFP-expressing neurons were positive for EthD-1 staining and therefore had died. In neurons co-transfected with wild-type mGluR1α, only 15% of neurons (n=8, in average, there were 428 GFP-expressing neurons counted on each coverslip) were EthD-1 positive, an effect that was statistically different from that in neurons co-transfected with control vector (p<0.01, Student's t-test). […] Therefore it was difficult to determine the exact location of cell bodies and the live/dead ratios in those neurons.

[2] = test system: mGluR5; assay: mGluR5 levels in cortical neurons after glutamate (immunoblot); conditions: 100 μM glutamate, 60 min
Description: (§1) Total cell lysates were separated by SDS-PAGE and probed with an antibody against the carboxyl terminus (residue 1142-1160) of mGluR1α. […] Total cell lysates were probed with an anti-myc antibody. […] Total cell lysates were probed with antibodies against mGluR5, G1uR2/3 and VGluT1 respectively.

[3] = test system: mGluR1α; assay: Glutamate/NMDA-induced C-terminal truncation of mGluR1α in cultured cortical neurons (immunoblot); conditions: 100 μM glutamate
Description: as §1
Total cell lysate was collected immediately after treatment and subjected to SDS-PAGE and immunoblotting with an antibody against the carboxyl terminus (residues 1142-1160) of mGluR1α (FIG. 2A). […] Neurons were transfected with a calcium phosphate precipitation method modified for high transfection rate (Jian et al., Gene Ther 11:1301-1311, 2004).
Cortical neurons were treated with NMDA at the indicated concentrations for 1 h or treated with NMDA (10 μM) for the indicated times. Total cell lysates were separated by SDS-PAGE and probed with antibodies against mGluR1α1142-1160, Results were normalized over control values and are means±s.e.m. of 4 experiments.
To determine whether activation of mGluR1α itself was required for the truncation, two distinct mGluR1α antagonists were applied.
To further characterize NMDA-induced mGluR1α truncation, the concentration- and time-dependencies of the effects of NMDA were studied. Cortical neurons were first incubated with different concentrations of NMDA for a fixed period of time (1 hour) (FIG. 3F). […] In a following experiment, cortical neurons were incubated with 10 μM NMDA for different durations ranging from 1 to 60 min (FIG. 3G).
Cortical neurons were treated with NMDA (10 μM, 1 h). Total cell lysates were separated by SDS-PAGE and probed with antibodies against spectrin and mGluR1α1142-1160, respectively. Only the degradation bands of spectrin (spectrin DB, at ˜145 KD) are shown. […] In FIG. 4C, purified myc-mGluR1α was digested with μ-calpain at the indicated concentrations (U/ml) for 30 min. The digested material was processed for SDS-PAGE and subjected to silver staining or immunoblots with anti-myc or anti-mGluR1α1142-1160 antibodies. […] The 1st lane was the myc-mGluR1α immunoprecipitated from 293 cells; the 2nd and 3rd lanes were immunoprecipitated myc-mGluR1α digested with indicated concentration of calpain. […] FIG. 4F is the alignment of mGluR1 (902-941) and mGluR5 (889-927) surrounding the calpain cleavage site.
In this set of experiments, we determined which protease(s) mediated NMDA-induced truncation of mGluR1α. […] Cortical neurons were pretreated with a calpain inhibitor, the cell-permeable calpain-inhibitor III, or the caspase inhibitor cpm-VAD-CHO for 2 hours and then incubated in the absence or presence of 100 µM NMDA for 1 hour. […] To further confirm calpain activation by NMDA under our experimental conditions, we determined the levels of the calpain-specific spectrin degradation fragments.

[4] = test system: vesicular glutamate transporter (vGluT1); assay: vGluT1 levels in cortical neurons after glutamate (immunoblot); conditions: 100 μM glutamate, 60 min
Description: as §1
To test for the specificity of glutamate-mediated truncation of mGluR1α, immunoblots were also probed with an antibody against mGluR5, another member of group I mGluRs, which shares a high similarity with mGluR1α.

Compound: N[C@@H](CCC(=O)O)C(=O)O [glutamate]
- EthD-1 positive GFP-expressing neurons (dead cells) ([1]; co-transfected with control vector): 35%
- EthD-1 positive GFP-expressing neurons (dead cells) ([1]; co-transfected with mGluR1α936Δ): 59%
- EthD-1 positive GFP-expressing neurons (dead cells) ([1]; co-transfected with wild-type mGluR1α): 15%
- levels of mGluR5 [2]: not significantly altered
- time at which mGluR1α truncation was apparent after glutamate treatment [3]: 1 min
- levels of native mGluR1α ([3]; 60 min (1 hour)): almost completely disappeared; also recorded: significant reduction
- changes to vGluT1 [4]: no significant changes
